Where “and” joins values, the source holds several entries; their conditions need not be identical. Equal entries are not always repeated. ± gives the expanded uncertainty stated by the source.
O=C(C(F)(F)C(F)(F)F)C(F)(C(F)(F)F)C(F)(F)F [dodecafluoro-2-methylpentan-3-one]
Conditions	thermal conductivity
402.37 K, 306 kPa, Gas, hot wire	0.0201 ± 0.00095 W/m/K
402.38 K, 27 kPa, Gas, hot wire	0.01858 ± 0.00088 W/m/K
402.38 K, 306 kPa, Gas, hot wire	0.02016 ± 0.00095 W/m/K
402.44 K, 159 kPa, Gas, hot wire	0.01917 ± 0.0009 W/m/K and 0.01915 ± 0.0009 W/m/K
402.45 K, 445 kPa, Gas, hot wire	0.02064 ± 0.00097 W/m/K
402.47 K, 444 kPa, Gas, hot wire	0.02039 ± 0.00096 W/m/K
402.49 K, 306 kPa, Gas, hot wire	0.02022 ± 0.00095 W/m/K and 0.02027 ± 0.00095 W/m/K
402.5 K, 27 kPa, Gas, hot wire	0.01866 ± 0.00088 W/m/K and 0.01864 ± 0.00088 W/m/K
402.57 K, 160 kPa, Gas, hot wire	0.01916 ± 0.0009 W/m/K
402.57 K, 161 kPa, Gas, hot wire	0.0192 ± 0.0009 W/m/K
402.57 K, 444 kPa, Gas, hot wire	0.02075 ± 0.00098 W/m/K
402.59 K, 443 kPa, Gas, hot wire	0.02053 ± 0.00097 W/m/K
402.62 K, 305 kPa, Gas, hot wire	0.02031 ± 0.00096 W/m/K and 0.02029 ± 0.00096 W/m/K
402.63 K, 27 kPa, Gas, hot wire	0.01867 ± 0.00088 W/m/K
402.64 K, 27 kPa, Gas, hot wire	0.01862 ± 0.00088 W/m/K
402.68 K, 835 kPa, Gas, transient hot wire	0.02013 ± 0.0012 W/m/K
402.69 K, 441 kPa, Gas, hot wire	0.02089 ± 0.00099 W/m/K
402.69 K, 442 kPa, Gas, hot wire	0.02089 ± 0.00099 W/m/K
402.69 K, 835 kPa, Gas, transient hot wire	0.02007 ± 0.0012 W/m/K
402.71 K, 162 kPa, Gas, hot wire	0.01917 ± 0.0009 W/m/K
402.71 K, 163 kPa, Gas, hot wire	0.01926 ± 0.00091 W/m/K
402.74 K, 305 kPa, Gas, hot wire	0.02049 ± 0.00096 W/m/K
402.74 K, 747 kPa, Gas, transient hot wire	0.01986 ± 0.0012 W/m/K
402.74 K, 748 kPa, Gas, transient hot wire	0.01986 ± 0.0012 W/m/K
402.75 K, 305 kPa, Gas, hot wire	0.02035 ± 0.00096 W/m/K
402.78 K, 27 kPa, Gas, hot wire	0.01867 ± 0.00088 W/m/K and 0.01858 ± 0.00088 W/m/K
402.81 K, 608 kPa, Gas, transient hot wire	0.01959 ± 0.0012 W/m/K
402.81 K, 609 kPa, Gas, transient hot wire	0.01955 ± 0.0012 W/m/K
402.85 K, 164 kPa, Gas, hot wire	0.01925 ± 0.00091 W/m/K and 0.01927 ± 0.00091 W/m/K
402.87 K, 447 kPa, Gas, transient hot wire	0.01955 ± 0.0012 W/m/K
402.87 K, 448 kPa, Gas, transient hot wire	0.01962 ± 0.0012 W/m/K
402.87 K, 836 kPa, Gas, transient hot wire	0.02025 ± 0.0013 W/m/K
402.88 K, 836 kPa, Gas, transient hot wire	0.0203 ± 0.0013 W/m/K
402.91 K, 746 kPa, Gas, transient hot wire	0.01994 ± 0.0012 W/m/K
402.92 K, 307 kPa, Gas, transient hot wire	0.01967 ± 0.0012 W/m/K
402.92 K, 746 kPa, Gas, transient hot wire	0.01998 ± 0.0012 W/m/K
402.93 K, 27 kPa, Gas, hot wire	0.01857 ± 0.00088 W/m/K and 0.01866 ± 0.00088 W/m/K
403 K, 607 kPa, Gas, transient hot wire	0.01962 ± 0.0012 W/m/K and 0.01975 ± 0.0012 W/m/K
403.05 K, 836 kPa, Gas, transient hot wire	0.02051 ± 0.0013 W/m/K
403.06 K, 836 kPa, Gas, transient hot wire	0.02049 ± 0.0013 W/m/K
403.07 K, 447 kPa, Gas, transient hot wire	0.01962 ± 0.0012 W/m/K
403.08 K, 446 kPa, Gas, transient hot wire	0.01959 ± 0.0012 W/m/K
403.1 K, 744 kPa, Gas, transient hot wire	0.02004 ± 0.0012 W/m/K
403.1 K, 745 kPa, Gas, transient hot wire	0.02014 ± 0.0012 W/m/K
403.12 K, 306 kPa, Gas, transient hot wire	0.01974 ± 0.0012 W/m/K
403.12 K, 307 kPa, Gas, transient hot wire	0.01974 ± 0.0012 W/m/K
403.2 K, 605 kPa, Gas, transient hot wire	0.01971 ± 0.0012 W/m/K
403.21 K, 606 kPa, Gas, transient hot wire	0.01981 ± 0.0012 W/m/K
403.25 K, 836 kPa, Gas, transient hot wire	0.02071 ± 0.0013 W/m/K
403.25 K, 837 kPa, Gas, transient hot wire	0.02072 ± 0.0013 W/m/K
403.28 K, 445 kPa, Gas, transient hot wire	0.01961 ± 0.0012 W/m/K
403.3 K, 445 kPa, Gas, transient hot wire	0.01958 ± 0.0012 W/m/K
403.33 K, 744 kPa, Gas, transient hot wire	0.02022 ± 0.0013 W/m/K
403.34 K, 306 kPa, Gas, transient hot wire	0.01976 ± 0.0012 W/m/K
403.34 K, 743 kPa, Gas, transient hot wire	0.02024 ± 0.0013 W/m/K
403.35 K, 306 kPa, Gas, transient hot wire	0.01972 ± 0.0012 W/m/K
403.41 K, 605 kPa, Gas, transient hot wire	0.01984 ± 0.0012 W/m/K
403.42 K, 604 kPa, Gas, transient hot wire	0.01984 ± 0.0012 W/m/K
403.51 K, 444 kPa, Gas, transient hot wire	0.01967 ± 0.0012 W/m/K
403.53 K, 742 kPa, Gas, transient hot wire	0.02037 ± 0.0013 W/m/K and 0.02041 ± 0.0013 W/m/K
403.54 K, 443 kPa, Gas, transient hot wire	0.01965 ± 0.0012 W/m/K
403.57 K, 305 kPa, Gas, transient hot wire	0.01974 ± 0.0012 W/m/K and 0.01978 ± 0.0012 W/m/K
403.63 K, 603 kPa, Gas, transient hot wire	0.01991 ± 0.0012 W/m/K
403.64 K, 602 kPa, Gas, transient hot wire	0.01991 ± 0.0012 W/m/K
403.75 K, 442 kPa, Gas, transient hot wire	0.01972 ± 0.0012 W/m/K
403.76 K, 442 kPa, Gas, transient hot wire	0.01971 ± 0.0012 W/m/K
403.81 K, 305 kPa, Gas, transient hot wire	0.01987 ± 0.0012 W/m/K and 0.01988 ± 0.0012 W/m/K
416.35 K, 1171 kPa, Liquid, transient hot wire	0.03902 ± 0.00082 W/m/K and 0.03885 ± 0.00082 W/m/K
416.51 K, 1171 kPa, Liquid, transient hot wire	0.03892 ± 0.00082 W/m/K and 0.03904 ± 0.00082 W/m/K
416.67 K, 1170 kPa, Liquid, transient hot wire	0.03901 ± 0.00082 W/m/K
416.68 K, 1170 kPa, Liquid, transient hot wire	0.0389 ± 0.00082 W/m/K
416.69 K, 596 kPa, Gas, hot wire	0.0223 ± 0.001 W/m/K
416.7 K, 595 kPa, Gas, hot wire	0.02228 ± 0.0014 W/m/K
416.78 K, 2205 kPa, Liquid, transient hot wire	0.04062 ± 0.00085 W/m/K
416.79 K, 2206 kPa, Liquid, transient hot wire	0.04049 ± 0.00085 W/m/K
416.8 K, 24840 kPa, Liquid, transient hot wire	0.05568 ± 0.0011 W/m/K
416.81 K, 24844 kPa, Liquid, transient hot wire	0.05562 ± 0.0011 W/m/K
416.81 K, 50957 kPa, Liquid, transient hot wire	0.06585 ± 0.0014 W/m/K
416.82 K, 50950 kPa, Liquid, transient hot wire	0.06577 ± 0.0014 W/m/K
416.86 K, 1170 kPa, Liquid, transient hot wire	0.03904 ± 0.00082 W/m/K
416.87 K, 1131 kPa, Gas, transient hot wire	0.02258 ± 0.00075 W/m/K
416.87 K, 1170 kPa, Liquid, transient hot wire	0.03905 ± 0.00082 W/m/K
416.88 K, 16295 kPa, Liquid, transient hot wire	0.0514 ± 0.0011 W/m/K
416.89 K, 590 kPa, Gas, hot wire	0.02234 ± 0.0014 W/m/K

Source: the NIST ThermoML archive (doi:10.1021/acs.jced.8b00132)
